Legend:
primary retinal neurons = test: Neurite growth of primary retinal neurons on complex inhibitory substrates (CSPG, myelin); type: cell-based, rats; details: plated on myelin or CSPG; 48 hours; FIG. 8
hindlimb motor function = test: Behavioral recovery after SCI, modified BBB locomotor rating scale; type: in vivo, mice
Description: Since a toe clearance phase cannot be evaluated in recuperating mice, we modified the rating to a 17 point scale. Behavioral recovery was assessed for one month after SCI in an open field environment by the BBB method (Basso et al., 1995). […] Thus, scale points 16, 17 and 18 were removed from the scale. Mice raise their tail early in their recovery, and score 19 for tail up position was removed, leaving a 17 point total score. The mouse modified BBB score was as follows: [0] no observable hindlimb (HL) movement; […] […] In the late phase of recovery, the BBB score was determined from sequences of 4 steps or more from digitized videos projected on a computer screen at ¼ speed.

[1] = test system: corticospinal tract (CST) fibers; parameters: species or system Balb-c female mice; details: mouse, in vivo

SMILES: C[C@@H](N)[C@H]1CC[C@H](C(=O)Nc2ccncc2)CC1 [Y27632, (+)-Trans-4-(1-aminoethyl)-1-(4-pyridycarbamoyl)-cyclohexane]
- length of neurites compared to untreated cells (primary retinal neurons): significantly increased the length of neurites
- locomotor recovery over 1 month (hindlimb motor function; 1 month period of observation): exhibited hindlimb-forelimb coordination
- locomotor recovery at 24 hours after surgery (hindlimb motor function; 24 hours, control mice paraplegic, FIG. 10): already walking with weight support
- distance of the longest axon from the lesion site [1]: up to 3 mm
- sprouting of transected CST axons [1]: regenerative sprouting into the dorsal white matter and toward the lesion site

Source: patent publication US7169783B2, “(+)-Trans-4-(1-aminoethyl)-1-(4-pyridycarbamoyl)-cyclohexane and method for promoting neural growth in the central nervous system and in a patient at a site of neuronal lesion” (Universite de Montreal, priority 1998, dated 2007)
